How the values were obtained:
γH2AX = experiment: Inhibition test of GSK3 inhibitor on DNA damage caused by radiation (γH2AX immunostaining); assay type: in vivo, mouse; conditions: 30 mg/kg one hour prior to 90 Gy lung irradiation, compared to the non-treatment group (IR)
Method: The tissue of a mouse was fixed with 10% neutral formalin for one day, and a paraffin section was made. In order to remove paraffin around the tissue, the tissue was immersed in a xylene solution and 100%, 95%, 90%, and 70% ethanol solutions in sequential order. For the antigen activation of the tissue, the tissue was immersed in a 0.1 M citric acid solution (pH 6.0) and boiled for 30 minutes, and then reacted with 3% hydrogen peroxide for 15 minutes. The tissue was allowed to react with γH2AX (abcam), which was diluted in 1:200 ratio in a PBS solution (including phosphate based saline buffer and 0.1% triton x-100), at 4° C. for 16 hours. After washing the tissue with PBS, a secondary antibody conjugated with biotin was diluted in 1:200 ratio and reacted with the tissue at room temperature for 30 minutes. After reacting the tissue with ABC (Avidin biotin complex) at room temperature for 30 minutes and color-developing 3,3′-DAB (3,3′-diaminobenzidine), the tissue was counterstained with hematoxylin. Subsequently, the tissue was immersed in 50%, 70%, 90%, 95%, and 100% ethanol solutions and a xylene solution in sequential order, followed by dropping one drop of a mounting solution. Then, the tissue was covered with a cover slide and observed under a microscope (Carl Zeiss Vision). […]

[1] = system: pulmonary vascular endothelial cells of irradiated C57BL/6 mouse lung; experiment: Pulmonary fibrosis inhibition test in experimental animal model (collagen, trichrome staining); assay type: in vivo; conditions: 30 mg/kg intraperitoneally one hour before 90 Gy lung irradiation, compared to the irradiation group (IR)
Method: The tissue of a mouse was fixed with 10% neutral formalin for one day, and a paraffin section was made. In order to remove paraffin around the tissue, the tissue was allowed to react with a xylene solution and 95%, 90%, and 70% ethanol solutions in sequential order for 5 minutes each. For the antigen activation of the tissue, the tissue was immersed in a 0.1 M citric acid solution (pH 6.0) and then boiled for 20 minutes. Subsequently, the tissue was allowed to react with a Bouin's solution for 1 minute, Weigert's hematoxylin for 10 minutes, phoshotunstic/phosphomolydic acid for 10 minutes, aniline blue for 5 minutes, and 1% acetic acid for 1 minute in sequential order. Thereafter, a dehydration process was performed, and then the tissue was covered with a cover glass and observed under a microscope (Carl Zeiss Vision).
In order to observe whether a phenomenon of pulmonary fibrosis of vascular endothelial cells is shown as the symptom of pulmonary fibrosis occurred after radiotherapy, the site of the lung of a C57BL/6 mouse was topically irradiated with an intensity of 90 Gy. After excising the lung from the mouse, the cross-section of the aorta of the lung tissue was stained by a trichrome staining method in order to identify collagen which is a protein shown upon fibrosis of the pulmonary vascular endothelial cells.

[2] = system: lung tissue of a mouse animal model irradiated with 90 Gy; experiment: Inhibition test of GSK3 inhibitor on tissue damage caused by radiation (H&E staining); assay type: in vivo; conditions: 30 mg/kg intraperitoneally one hour before 90 Gy chest irradiation, two weeks after irradiation, compared to the non-treatment group (IR)
Method: The tissue of a mouse was fixed with 10% neutral formalin for one day, and a paraffin section was made. In order to remove the paraffin around the tissue, the tissue was allowed to react with a xylene solution and 95%, 90%, and 70% ethanol solutions in sequential order for 5 minutes each, and then immersed in a hematoxylin solution for 1 minute to stain the nuclei and then washed under running water for 10 minutes. Thereafter, the cytoplasm was stained by immersing the tissue in an eosin solution for 30 seconds. Thereafter, the tissue was immersed in 50%, 70%, 90%, and 95% ethanol solutions, and a xylene solution in sequential order, followed by dropping one drop of a mounting solution. Then, the tissue was covered with a cover slide and observed under a microscope (Carl Zeiss Vision). The lung tissue of a mouse animal model, in which the chest of the mouse was irradiated in a size of 3 mm with an intensity of 90 Gy, was fixed with 10% formalin, and a paraffin section was made. Thereafter, tissue inflammatory response and fibrosis were identified by using a hematoxylin and eosin staining method. […] Two weeks after the irradiation, the inflammatory response and fibrosis of the tissue damage site were identified by using a hamatoxylin and eosin staining method.

[3] = system: lung tissue of bleomycin-injected mouse; experiment: Inhibition test of GSK3 inhibitor on tissue damage caused by bleomycin (bleomycin-induced pulmonary fibrosis model); assay type: in vivo; conditions: 30 mg/kg intraperitoneally one hour before 1.25 U/kg bleomycin into the airway; three weeks after injection; H&E and trichrome staining; compared to the non-treatment group
Method: (§1) The tissue of a mouse was fixed with 10% neutral formalin for one day, and a paraffin section was made. In order to remove the paraffin around the tissue, the tissue was allowed to react with a xylene solution and 95%, 90%, and 70% ethanol solutions in sequential order for 5 minutes each, and then immersed in a hematoxylin solution for 1 minute to stain the nuclei and then washed under running water for 10 minutes. Thereafter, the cytoplasm was stained by immersing the tissue in an eosin solution for 30 seconds. Thereafter, the tissue was immersed in 50%, 70%, 90%, and 95% ethanol solutions, and a xylene solution in sequential order, followed by dropping one drop of a mounting solution. Then, the tissue was covered with a cover slide and observed under a microscope (Carl Zeiss Vision).
The tissue of a mouse was fixed with 10% neutral formalin for one day, and a paraffin section was made. In order to remove paraffin around the tissue, the tissue was allowed to react with a xylene solution and 95%, 90%, and 70% ethanol solutions in sequential order for 5 minutes each. For the antigen activation of the tissue, the tissue was immersed in a 0.1 M citric acid solution (pH 6.0) and then boiled for 20 minutes. […]

[4] = system: vascular wall in the lung tissue of a mouse animal model irradiated with 90 Gy; experiment: Inhibition test of GSK3 inhibitor on in vivo vascular damage caused by radiation (vascular wall thickness, H&E staining); conditions: 30 mg/kg intraperitoneally one hour before 90 Gy chest irradiation, two weeks after irradiation, compared to the non-treatment group (IR)
Method: as §1
The lung tissue of a mouse animal model, in which the chest of the mouse was irradiated in a size of 3 mm with an intensity of 90 Gy, was fixed with 10% formalin, and a paraffin section was made. Thereafter, the tissue was stained with hematoxylin and eosin. Upon observing the tissue with this staining method, the cell nucleus is observed in blue and the cytoplasm in pink. One hour before irradiating the mouse animal model, 30 mg/kg of […] or CHIR-98014 was administered intraperitoneally. […]

Row | Compound | expression of γH2AX according to the DNA damage (γH2AX) | blue sites of collagen (protein associated with pulmonary fibrosis) in inner wall of the aorta of the lung [1] | infiltration of the inflammatory cells and the fibrotic matrix around blood vessels [2] | pathological characteristics (infiltration of inflammatory cells, deposition of collagen, fibrous nodules, interstitial thickening) [3] | thickness of the vascular wall [4]
1 | Cc1c[nH]c(-c2cnc(NCCNc3ccc(C#N)cn3)nc2-c2ccc(Cl)cc2Cl)n1 [CHIR-99021, 6-[[2-[[4-(2,4-dichlorophenyl)-5-(5-methyl-1H-imidazol-2-yl)-2-pyrimidinyl]amino]ethyl]amino]-3-pyridinecarbonitrile] | remarkably reduced | remarkably reduced | remarkably reduced | remarkably inhibited | remarkably reduced
2 | Nc1nc(NCCNc2ncc(-c3ncc[nH]3)c(-c3ccc(Cl)cc3Cl)n2)ccc1[N+](=O)[O-] [CHIR-98014, N-6-[2-[[4-(2,4-dichlorophenyl)-5-(1H-imidazol-2-yl)-2-pyrimidinyl]amino]ethyl]-3-nitro-2,6-pyridinediamine] | remarkably reduced | remarkably reduced | remarkably reduced | remarkably inhibited | remarkably reduced
